Reference: US8759392B2, “Amides as inhibitors of human secreted phospholipase A2” (The Regents of the University of California, priority 2008, dated 2014)

Key:
secreted PLA2 = conditions: known inhibitors of FIG. 1; cited from earlier work
human GVIA iPLA2 = biological target: T1, human GVIA iPLA2 (Homo sapiens, UniProt O60733); test: Mixed micelle-based assay, inhibition of GVIA iPLA2; type: biochemical
T1 sequence (O60733 1-806): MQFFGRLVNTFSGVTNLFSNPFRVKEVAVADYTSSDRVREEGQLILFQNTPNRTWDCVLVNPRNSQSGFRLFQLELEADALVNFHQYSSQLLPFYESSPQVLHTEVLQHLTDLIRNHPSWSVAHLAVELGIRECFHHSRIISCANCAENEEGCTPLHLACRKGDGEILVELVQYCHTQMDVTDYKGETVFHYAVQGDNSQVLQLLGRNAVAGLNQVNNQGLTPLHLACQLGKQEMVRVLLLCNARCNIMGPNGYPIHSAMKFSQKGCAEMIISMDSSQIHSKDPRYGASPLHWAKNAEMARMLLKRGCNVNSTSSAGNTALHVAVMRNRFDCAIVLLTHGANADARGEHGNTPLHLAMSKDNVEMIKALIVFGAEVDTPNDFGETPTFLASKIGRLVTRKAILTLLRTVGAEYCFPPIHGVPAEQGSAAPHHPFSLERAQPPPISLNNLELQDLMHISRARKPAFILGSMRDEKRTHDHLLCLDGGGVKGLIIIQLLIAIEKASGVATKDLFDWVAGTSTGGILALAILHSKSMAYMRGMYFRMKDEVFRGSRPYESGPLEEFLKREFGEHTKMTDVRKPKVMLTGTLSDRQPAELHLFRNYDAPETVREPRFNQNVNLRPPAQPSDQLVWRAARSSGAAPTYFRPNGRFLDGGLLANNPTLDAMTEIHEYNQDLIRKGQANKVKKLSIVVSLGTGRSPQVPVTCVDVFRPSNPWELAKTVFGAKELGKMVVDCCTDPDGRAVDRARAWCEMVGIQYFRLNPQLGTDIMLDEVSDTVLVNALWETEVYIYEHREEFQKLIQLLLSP
Procedure: (§1) The amides were tested for inhibition of human GIVA cPLA2, GVIA iPLA2 and GV sPLA2 using previously described mixed micelle-based assays. The resulting degrees of inhibition are presented as either percent inhibition or XI(50) values. […] The XI(50) is the mole fraction of the inhibitor in the total substrate interface required to inhibit the enzyme by 50%.

spinal cord injury (SCI) = test: Spinal cord injury (SCI) in mice
human GIVA cPLA2 = biological target: T2, human GIVA cPLA2 (Homo sapiens, UniProt P47712); test: Mixed micelle-based assay, inhibition of GIVA cPLA2; type: biochemical
T2 sequence (P47712 1-749): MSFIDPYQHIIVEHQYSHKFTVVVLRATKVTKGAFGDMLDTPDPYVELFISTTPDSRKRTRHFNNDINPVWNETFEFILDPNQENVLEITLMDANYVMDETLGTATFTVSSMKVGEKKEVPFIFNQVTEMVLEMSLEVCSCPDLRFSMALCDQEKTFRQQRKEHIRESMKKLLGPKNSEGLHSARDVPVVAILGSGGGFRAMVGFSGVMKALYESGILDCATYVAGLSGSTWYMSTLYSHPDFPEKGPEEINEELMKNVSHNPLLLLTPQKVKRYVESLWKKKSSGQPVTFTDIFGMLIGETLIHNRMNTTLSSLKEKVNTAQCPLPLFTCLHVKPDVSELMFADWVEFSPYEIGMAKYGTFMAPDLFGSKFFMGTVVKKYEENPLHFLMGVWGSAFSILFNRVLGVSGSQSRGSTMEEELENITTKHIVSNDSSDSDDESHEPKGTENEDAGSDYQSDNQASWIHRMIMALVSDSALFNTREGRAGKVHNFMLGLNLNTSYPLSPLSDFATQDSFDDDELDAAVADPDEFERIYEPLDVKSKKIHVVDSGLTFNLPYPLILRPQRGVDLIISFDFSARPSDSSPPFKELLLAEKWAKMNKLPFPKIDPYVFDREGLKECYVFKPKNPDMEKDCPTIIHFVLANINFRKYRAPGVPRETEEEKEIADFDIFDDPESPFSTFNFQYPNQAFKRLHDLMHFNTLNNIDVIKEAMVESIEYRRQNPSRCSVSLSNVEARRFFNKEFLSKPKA
Procedure: as §1

human GV sPLA2 = biological target: T3, human GV sPLA2 (Homo sapiens, UniProt P39877); test: Mixed micelle-based assay, inhibition of GV sPLA2; type: biochemical; conditions: for Inhibition (% at 0.091 mol fraction) sPLA2 GIIA/GV*: 0.091 mole fraction of inhibitor, average and standard error, n = 3
T3 sequence (P39877 21-138): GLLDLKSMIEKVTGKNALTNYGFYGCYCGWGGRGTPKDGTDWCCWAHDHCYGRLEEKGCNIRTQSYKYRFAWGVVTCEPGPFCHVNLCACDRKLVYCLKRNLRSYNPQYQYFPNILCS
Procedure: FIG. 2 illustrates inhibition curve for an amide of the present disclosure in a mixed-micelle assay with human GV sPLA2. The amides were tested for inhibition of human GIVA cPLA2, GVIA iPLA2 and GV sPLA2 using previously described mixed micelle-based assays.

[1] = 0.091 mole fraction of inhibitor, average and standard error, n = 3

Row | Activity on GVIA iPLA2 (in words) (human GVIA iPLA2) | Activity on GIVA cPLA2 (in words) (human GIVA cPLA2) | Activity on GV sPLA2 (in words) (human GV sPLA2) | XI(50) GV sPLA2 (human GV sPLA2; mole fraction of inhibitor in total substrate interface for 50% inhibition, non-linear regression (hyperbolic)) [mole fraction] | SMILES | Inhibition of secreted PLA2 (in words) (secreted PLA2) | Myelin sparing (luxol fast blue) (spinal cord injury (SCI); 28 days after SCI, […]) | Locomotor function, 9-point Basso Mouse Scale (BMS) score (spinal cord injury (SCI); administration started 1 hour after SCI, vs vehicle treated mice, significant from day 5 dpi through the follow up) | Inhibition (% at 0.091 mol fraction) sPLA2 GIIA/GV* (human GV sPLA2) [%] | Inhibition (% at 0.091 mol fraction) iPLA2 GVIA (human GVIA iPLA2; [1]) [%] | XI(50) iPLA2 GVIA (human GVIA iPLA2; mole fraction of inhibitor in total substrate interface required to inhibit the enzyme by 50%) [mole fraction] | Inhibition (% at 0.091 mol fraction) cPLA2 GIVA (human GIVA cPLA2; [1])
1 | – | – | – | – | CCC[C@H](CCC(=O)O)NC(=O)CCCCCCc1ccccc1 [Compound 2] | potent inhibitor | – | – | – | – | – | –
2 | not affecting at all | not affecting at all | potent and selective GV sPLA2 inhibitor | 0.003±0.0004 | CCCC[C@H](CCC(=O)O)NC(=O)CCCCCCc1ccccc1 [Compound 9, (R)-4-(7-phenylheptanamido)octanoic acid] | – | significant myelin sparing | improved locomotor function | > 95 | – | – | –
3 | – | – | – | – | O=C(CCCCc1ccccc1)C(F)(F)C(F)(F)F [FKGK11, reference compound] | – | – | – | 28 ± 1 | > 95 | 0.0096 ± 0.0008 | N.D. (N.D. signifies compounds with less than 25% inhibition (or no detectable inhibition))
